Assay results as given in patent US9617310B2 (priority 2013, dated 2017).

Legend:
[1] = tested on: genotype 1a stable HCV replicon (H77) in Huh-7-derived cells; assay: Stable subgenomic HCV replicon, genotype 1a, Renilla luciferase; format: cell-based; details: Hepatitis C virus, stable replicon genotype 1a, 72 h, read-out: EC50 1A RLUC
Description: Antiviral potency (EC50) was determined in both stable subgenomic HCV replicon cell lines and transient-transfected HCV replicon cells. The term half maximal effective concentration (EC50) refers to the concentration of a drug which induces a response halfway between the baseline and maximum after the exposure time specified below.
Stable subgenomic HCV replicons for genotype 1a, 1b, 2a, 3a, and 4a were established in Huh-7-derived cells as described by Lohmann et al (Lohmann V, Korner F, Koch J, et al Replication of subgenomic hepatitis C virus RNAs in a hepatoma cell line. Science 1999; 285:119-3). Each stable cell line contains a bicistronic HCV replicon that encodes a humanized Renilla luciferase (hRLuc) reporter gene fused to a selectable neomycin-resistance gene, followed by an EMCV IRES and the NS3-NS5B coding region of HCV. […] Luciferase activity was measured as a marker for intracellular HCV replication levels.
The genotype 1a stable replicon was derived from the H77 HCV strain and contained adaptive mutations P1496L and S2204I. The genotype 1b stable replicon was derived from the Con1 HCV strain and contained adaptive mutations E1202G, T1280I, and K1846T. […] The genotype 3a stable replicon was derived from the S52 HCV strain and contained adaptive mutations P1121 L, A1198T and S2210I (equivalent to S2204I in genotype 1). The genotype 4a stable replicon was derived from the ED43 HCV strain and contained adaptive mutations Q1691R and S2204I. All replicon cell lines were propagated in Huh-7-derived cells and maintained in Dulbecco's modified Eagle's Medium (DMEM) supplemented with 10% fetal bovine serum (FBS) and 0.5 mg/ml G418.
To perform EC50 assays, cells from each HCV replicon were dispensed into 384-well plates. Compounds were dissolved in DMSO at a concentration of 10 mM and diluted in DMSO using an automated pipetting instrument. Three-fold serially diluted compounds were directly added to the cells using an automated instrument. DMSO was used as a negative (solvent; no inhibition) control, and a combination of three HCV inhibitors including a protease inhibitor; an NS5A inhibitor and a nucleoside inhibitor was used at concentrations >100×EC50 as a positive control (100% inhibition). Seventy-two hours later, cells were lysed and Renilla luciferase activity were quantified as recommended by the manufacturer (Promega-Madison, Wis.). Non-linear regression was performed to calculate […], values.

NS3 genotype 3a protease = target: T1, NS3 genotype 3a protease (UniProt Q81258); assay: Ki determination, NS3 protease genotype 3a (fluorogenic depsipeptide substrate); format: biochemical, hepatitis C virus; details: NS3 protease domain genotype 3a, NS4A peptide
T1 construct: Purified NS3 protease domain (amino acids 1-181) of the genotype 1b and 3a virus were generated as above; fused on or other part: N-terminal hexahistidine tag with an rTEV protease cleavage site (vector p28-N6H-Tev-NS3(181)3)
T1 sequence (Q81258 1033-1663): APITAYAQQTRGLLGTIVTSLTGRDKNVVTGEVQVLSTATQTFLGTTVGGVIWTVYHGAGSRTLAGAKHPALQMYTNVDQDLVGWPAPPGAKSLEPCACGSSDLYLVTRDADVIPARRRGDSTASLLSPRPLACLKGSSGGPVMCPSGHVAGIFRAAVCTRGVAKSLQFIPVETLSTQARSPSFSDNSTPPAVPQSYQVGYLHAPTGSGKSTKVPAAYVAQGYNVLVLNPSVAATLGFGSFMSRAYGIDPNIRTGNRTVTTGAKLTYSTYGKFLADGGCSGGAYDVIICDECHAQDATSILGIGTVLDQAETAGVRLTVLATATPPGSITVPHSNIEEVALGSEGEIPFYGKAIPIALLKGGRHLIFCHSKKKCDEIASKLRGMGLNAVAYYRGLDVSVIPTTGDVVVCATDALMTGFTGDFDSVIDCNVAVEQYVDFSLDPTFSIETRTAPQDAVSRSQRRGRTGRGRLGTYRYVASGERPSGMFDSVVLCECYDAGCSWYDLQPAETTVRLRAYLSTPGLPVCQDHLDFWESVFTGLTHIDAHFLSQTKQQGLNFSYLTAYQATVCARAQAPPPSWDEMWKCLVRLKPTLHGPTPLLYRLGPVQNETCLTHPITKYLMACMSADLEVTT
Excerpt: Ki Determination for Genotypes 1b and 3a NS3 Protease.
Purified NS3 protease domain (amino acids 1-181) of the genotype 1b and 3a virus were generated as above. The internally quenched fluorogenic depsipeptide substrate Ac-DED(Edans)-EEAbuψ[COO]ASK(Dabcyl)-NH2 and a synthetic peptide containing the hydrophobic core residues of the NS4A protein cofactor ([…]; NS4A peptide) were obtained from Anaspec, Inc. (San Jose, Calif.). Other chemicals and biochemicals were of reagent grade or better and were purchased from standard suppliers.
Reactions were run at room temperature in buffer consisting of 50 mM HEPES, 40% glycerol, 0.05% Triton X-100, 10 mM DTT, and 10% DMSO. The final assay solutions contained 50 pM NS3 genotype 1b protease or 200 pM genotype 3a protease, 20 μM NS4A peptide, and 4 μM substrate (genotype 1b) or 2 μM substrate (genotype 3a). Inhibitor concentrations varied from 100 nM to 5 pM in 3-fold dilutions, and no-inhibitor controls were included.
Compound dilutions were made in DMSO at 20× final concentration. Reaction mixtures were prepared in 96-well assay plates. A solution of enzyme and NS4A peptide in assay buffer (25 μL volume with both reagents at 4× final concentration) was mixed with 45 μL assay buffer and 5 μL of either inhibitor or DMSO, and pre-incubated at room temperature for 1 hour. The reaction was started by addition of 25 μL substrate solution at 4× final concentration. Plates were mixed vigorously for 5-10 seconds and reactions were allowed to proceed for 90 minutes. Fluorescence was measured every 30 s between 90 and 120 minutes reaction time using a Tecan InfiniTe M1000 or PerkinElmer Envision multimode plate reader with an excitation wavelength of 340 nm and an emission wavelength of 490 nm.
Rates were calculated from the progress curves at steady state, in the time frame of 90-120 minutes after addition of substrate. To determine the Ki, rates were plotted as a function of inhibitor concentration, and the data were fit with equation 1 (Morrison, J. F., Biochimica et Biophysica Acta 1969, 185, 269-286) to calculate Ki^app using GraphPad Prism 5. Active fraction of enzyme was determined by active site titration with known potent inhibitors. Ki was calculated from Ki^app/(1+[[S]/Km]).

[2] = tested on: genotype 1b wild-type transient HCV replicon in Huh-7-derived cells; assay: Transient-transfected HCV replicon, genotype 1b wild type; format: cell-based; details: Hepatitis C virus; transient-transfected replicon genotype 1b wild type, 72 h; read-out: EC50 1B WT

Compound	EC50 [1]	Ki (NS3 genotype 3a protease)	EC50 [2]
COc1ccc2nc3c(nc2c1)O[C@@H]1C[C@@H](C(=O)N[C@]2(C(=O)NS(=O)(=O)C4CC4)C[C@H]2C(F)F)N(C1)C(=O)[C@H](C(C)(C)C)NC(=O)O[C@@H]1C[C@@H]2C[C@@H]2[C@H]1CCCCC3(F)F (racemic) [Example 9, (1aS,2aR,6S,9S,11R,23aR,23bS)-6-tert-butyl-N-[(1R,2R)-1-[(cyclopropylsulfonyl)carbamoyl]-2-(difluoromethyl)cyclopropyl]-19,19-difluoro-15-methoxy-4,7-dioxo-1a,2,2a,4,5,6,7,10,11,19,20,21,22,23,23a,23b-hexadecahydro-1H,9H-8,11-methanocyclopropa[4′,5′]cyclopenta[1′,2′:18,19][1,10,3,6]dioxadiazacyclononadecino[11,12-b]quinoxaline-9-carboxamide]	1.7 nM	0.02 nM	0.71 nM
CC(C)(C)[C@@H]1NC(=O)O[C@@H]2C[C@@H]3C[C@@H]3[C@H]2CCCCC(F)(F)c2nc3cc(F)c(F)cc3nc2O[C@@H]2C[C@@H](C(=O)N[C@]3(C(=O)NS(=O)(=O)C4CC4)C[C@H]3C(F)F)N(C2)C1=O (racemic) [Example 15, (1aS,2aR,6S,9S,11R,23aR,23bS)-6-tert-butyl-N-[(1R,2R)-1-[(cyclopropylsulfonyl)carbamoyl]-2-(difluoromethyl)cyclopropyl]-15,16,19,19-tetrafluoro-4,7-dioxo-1a,2,2a,4,5,6,7,10,11,19,20,21,22,23,23a,23b-hexadecahydro-1H,9H-8,11-methanocyclopropa[4′,5′]cyclopenta[1′,2′:18,19][1,10,3,6]dioxadiazacyclononadecino[11,12-b]quinoxaline-9-carboxamide]	3.5 nM	0.05 nM	1.3 nM
COc1ccc2nc3c(nc2c1)O[C@@H]1C[C@@H](C(=O)N[C@]2(C(=O)NS(=O)(=O)C4CC4)C[C@H]2C(F)F)N(C1)C(=O)[C@H](C(C)(C)C)NC(=O)O[C@@H]1C[C@@H]2C[C@@H]2[C@H]1CCCCC3 [Example 1, (1aS,2aR,6S,9S,11R,23aR,23bS)-6-tert-butyl-N-[(1R,2R)-1-[(cyclopropylsulfonyl)carbamoyl]-2-(difluoromethyl)cyclopropyl]-15-methoxy-4,7-dioxo-1a,2,2a,4,5,6,7,10,11,19,20,21,22,23,23a,23b-hexadecahydro-1H,9H-8,11-methanocyclopropa[4′,5′]cyclopenta[1′,2′:18,19][1,10,3,6]dioxadiazacyclononadecino[11,12-b]quinoxaline-9-carboxamide]	1.1 nM	0.03 nM	0.61 nM
COc1ccc2nc3c(nc2c1)O[C@@H]1C[C@@H](C(=O)N[C@]2(C(=O)NS(=O)(=O)C4(C)CC4)C[C@H]2C(F)F)N(C1)C(=O)[C@H](C(C)(C)C)NC(=O)O[C@@H]1C[C@@H]2C[C@@H]2[C@H]1CCCCC3 [Example 2, (1aS,2aR,6S,9S,11R,23aR,23bS)-6-tert-butyl-N-[(1R,2R)-2-(difluoromethyl)-1-{[(1-methylcyclopropyl)sulfonyl]carbamoyl}cyclopropyl]-15-methoxy-4,7-dioxo-1a,2,2a,4,5,6,7,10,11,19,20,21,22,23,23a,23b-hexadecahydro-1H,9H-8,11-methanocyclopropa[4′,5′]cyclopenta[1′,2′18,19][1,10,3,6]dioxadiazacyclononadecino[11,12-b]quinoxaline-9-carboxamide]	1.1 nM	0.04 nM	0.74 nM
COc1ccc2nc3c(nc2c1)O[C@@H]1C[C@@H](C(=O)N[C@]2(C(=O)NS(=O)(=O)C4CC4)C[C@H]2CC(F)F)N(C1)C(=O)[C@H](C(C)(C)C)NC(=O)O[C@@H]1C[C@@H]2C[C@@H]2[C@H]1CCCCC3 [Example 3, (1aS,2aR,6S,9S,11R,23aR,23bS)-6-tert-butyl-N-[(1R,2S)-1-[(cyclopropylsulfonyl)carbamoyl]-2-(2,2-difluoroethyl)cyclopropyl]-15-methoxy-4,7-dioxo-1a,2,2a,4,5,6,7,10,11,19,20,21,22,23,23a,23b-hexadecahydro-1H,9H-8,11-methanocyclopropa[4′,5′]cyclopenta[1′,2′:18,19][1,10,3,6]dioxadiazacyclononadecino[11,12-b]quinoxaline-9-carboxamide]	3.8 nM	0.21 nM	2.9 nM
COc1ccc2nc3c(nc2c1)O[C@@H]1C[C@@H](C(=O)N[C@]2(C(=O)NS(=O)(=O)C4CC4)C[C@H]2C(F)F)N(C1)C(=O)[C@H](C(C)(C)C)NC(=O)O[C@@H]1[C@H]2CC[C@H](C2)[C@H]1CCCCC3 [Example 4, (1R,4S,4aR,8S,11S,13R,25aR)-8-tert-butyl-N-[(1R,2R)-1-[(cyclopropylsulfonyl)carbamoyl]-2-(difluoromethyl)cyclopropyl]-17-methoxy-6,9-dioxo-2,3,4,4a,6,7,8,9,12,13,21,22,23,24,25,25a-hexadecahydro-1H,11H-1, 4:10,13-dimethanoquinoxalino[2,3-k][1,10,3,6]benzodioxadiazacyclononadecine-11-carboxamide]	4.3 nM	0.21 nM	1.2 nM
COc1ccc2nc3c(nc2c1)O[C@@H]1C[C@@H](C(=O)N[C@]2(C(=O)NS(=O)(=O)C4(C)CC4)C[C@H]2C(F)F)N(C1)C(=O)[C@H](C(C)(C)C)NC(=O)O[C@@H]1[C@H]2CC[C@H](C2)[C@H]1CCCCC3 [Example 5, (1R,4S,4aR,8S,11S,13R,25aR)-8-tert-butyl-N-[(1R,2R)-2-(difluoromethyl)-1-{[(1-methylcyclopropyl)sulfonyl]carbamoyl}cyclopropyl]-17-methoxy-6,9-dioxo-2,3,4,4a,6,7,8,9,12,13,21,22,23,24,25,25a-hexadecahydro-1H,11H-1, 4:10,13-dimethanoquinoxalino[2,3-k][1,10,3,6]benzodioxadiazacyclononadecine-11-carboxamide]	5 nM	0.27 nM	2.1 nM
